# Source: a melting point compilation (Tetko et al.; mined from patent text by program, amines drawn as free bases though some values may be those of a salt)
row,SMILES,melting point [°C]
1,Cc1nn(C)c(NCC(C)(C)C)c1NCc1ccncc1,88 to 90
2,COc1c(N2C[C@H](CF)[C@](C)(N)C2)c(F)cc2c(=O)c(C(=O)O)cn([C@@H]3C[C@@H]3F)c12,187 to 189
3,CNC1=Nc2ccc([N+](=O)[O-])cc2C(c2ccccc2Cl)=NC1,219 to 221
4,CCCCCCCCCCCCCCC(O)(CCCCCC(=O)O)CCCCCC(=O)O,79 to 80
5,Brc1ccc(-c2ccc(C=CC3COC4(CCCCC4)OO3)cc2)cc1 (centres undefined),118 to 120
6,CCOC(=O)OC1CCN(C(=O)Cn2c(=O)sc3ccc(Cl)cc32)CC1,196 to 197
7,CCCn1nc(C(=O)c2cccc(O)c2)c2cccc(C(F)(F)F)c21,118
8,Cc1cc2c(c3c1NC(=O)CC3)O[C@@H](CN)[C@@H]2CO (racemic),> 300
9,c1ccc2cc3sccc3cc2c1,193 to 194
10,CNC(=S)N(C)NC(=O)c1cccs1,176 to 178
11,CCN(CC)C(=O)ON=C(C(=O)N(C)C)C(C)=NOC,59 to 61
12,CCOc1cc2c(cc1OCC)C(c1ccccc1)=NCC(=O)N2,233 to 236
13,CNc1c2c(nn1C)N(c1c(C)cc(C)cc1C)CCC2,143 to 145
14,CC1(C)C(=O)NC(=O)c2cc(NC(N)=O)ccc21,260 to 264
15,O=C(O)CNC1C2CC3CC(C2)CC1C3 (centres undefined),255
16,COc1cc(N)c(Cl)cc1C(=O)NCC12CCCN(CCC1)C2,202 to 203
17,CC(C)N(CCC(CCN(C(C)C)C(C)C)(C(N)=O)c1ccc(Cl)cc1)C(C)C,113 to 115
18,Cc1ccc(NC(=O)N=C2CCCN2C)cc1,136 to 137
19,CC(C)(C)NC(=O)NC1(C#N)CCCC1,206 to 207
20,Cc1cccc(C(=O)NC(C)C)c1N,149 to 151
21,CCOC(=O)c1[nH]c(C)c(C)c1OCCCl,81 to 83
22,CC=CC(=O)Nc1n[nH]c2cc(Cl)ccc12,226
23,CC(=O)NC[C@H]1CN(c2ccc3c(c2)CSCC3)C(=O)O1,139 to 140
24,O=C1c2ccccc2CN1CC1CCN(CCc2c[nH]c3ccccc23)CC1,225 to 230
25,COc1ccc(S(N)(=O)=O)cc1C(O)CN=[N+]=[N-] (centres undefined),122
26,Nc1nc(Cl)cc(Oc2ccc3c(C(=O)Nc4cccc(C(F)(F)F)c4)cnn3c2)n1,219 to 221

row,SMILES,melting point [°C]
1,Cc1nnc(OC(=O)N2CCN(C)CC2)n1-c1ccc(Cl)cn1,214 to 216
2,O=c1[nH]c2cc(Cl)c(Cl)cc2n2ccnc12,> 300
3,CC(C)(C)OC(=O)NC[C@H]1CC[C@H](C#N)CC1,100 to 101
4,N#CCCn1cc(-c2cccc(Cl)c2Cl)c(C(F)(F)F)c1,83 to 85
5,CN(C)c1ccc(-c2cn[nH]c2N)cc1,173 to 176
6,O=C(O)c1cccc(Oc2ccc(O)cc2)c1,163 to 166
7,CCn1nc(C)c2c1C1=NCCN1C(C)=N2,168 to 170
8,CC(CC(F)(F)C(F)(F)C(F)(F)C(F)(F)C(F)(F)C(F)(F)CC(C)C(=O)O)C(=O)O (centres undefined),150 to 151
9,O=C(N1CC2CC2(c2ccc(Cl)cc2)C1)C12CC3CC(CC(C3)C1)C2 (centres undefined),72 to 75
10,CC1(C)CCC(C)(C)c2cc(C(F)C(=O)O)ccc21 (centres undefined),127 to 128
11,Cc1noc(C)c1-c1ncccc1OC1SCC(O)C(O)C1O (centres undefined),112
12,Cc1cc2c(cc1O)C(C)(C)CC1(CC(C)(C)c3cc(OC(C)(C)CO)c(C)cc3O1)O2 (centres undefined),188 to 189
13,Cn1cc(-c2cccc(F)c2)c(C(=O)NCCNC(=O)OC(C)(C)C)n1,124
14,Cn1cc(-c2ccc(Cl)cc2Cl)c(=O)cc1C(F)(F)F,205 to 206
15,COCCOCCOCCOCC(N)C(=O)O (centres undefined),184 to 185
16,COC(=O)c1cc2c([nH]c1=O)CCCCCC2,220 to 224
17,C=C1C[C@@H]2[C@H](CC[C@]3(C)C(=O)CC[C@@H]23)[C@@]2(C)CCC(=O)C(OC(C)=O)=C12,183 to 185
18,O=c1[nH]c(Cl)nc2c1ncn2COCCO,> 310
19,CC(=O)OCCSC(F)(F)C(O)(Cn1cncn1)c1ccc(F)cc1F (centres undefined),79 to 82
20,CCOC(=O)C(C)(C)c1nsc2ccc(-n3c(=O)cc(C(F)(F)F)n(C)c3=O)cc12,164 to 167
21,Nc1nc(NCCO)c2ncn(C3C=CC(CO)C3)c2n1 (centres undefined),150 to 152
22,COc1ccc2[nH]c3cc(N)c4c(c3c2c1)C(=O)NC4=O,342 to 345
23,CCN(CC)C(=O)n1cnc(S(=O)(=O)c2cc(F)c(C#N)cc2F)n1,98
24,Cn1c(=O)c2c(C#N)cccc2n2cnc(-c3noc(C4CC4)n3)c12,115 to 125
25,Nc1nc(Cl)c2ncn(C3CC(F)C(CO)O3)c2n1 (centres undefined),172

# Further lines, results first:
row,melting point [°C],SMILES
1,250 to 251,NS(=O)(=O)c1cc(C(=O)O)cc(OCc2ccccc2)c1Cc1ccccc1
2,254,O=C(Nc1cccc(F)n1)Nc1cccc2c1C1CCCCN1C2=O (centres undefined)
3,193 to 194,CCN1CN2C(=N1)C(c1ccccc1Cl)=NCC1=C2S(=O)C(C(=O)NC)C1 (centres undefined)
4,74 to 75,O=C(O)CCCCCCOc1cccc(-c2ccccc2)n1
5,139,COc1ccc2ccccc2c1CCNC(C)=O
6,183,CCCC(C)NC(=O)c1ccc(C(=O)Nc2ccccc2NC(=O)OC(C)(C)C)s1 (centres undefined)
7,143 to 144,O=C(c1ccc(-c2cnc3c(c2)N(Cc2cc(F)ccc2F)CCN3)cc1)N1CCC[C@H]1CN1CCCC1
8,106 to 107,COC(=O)Cc1cn(Cc2ccccc2)nc1OCCCc1cc(O)nn1Cc1ccc(Cl)cc1Cl
9,227 to 229,O=C(O)c1ccc(Nc2cccc3ccccc23)cc1
10,146 to 147,O=C(Nc1c(OCc2ccccc2)cc(Br)cc1[N+](=O)[O-])C(F)(F)F
11,214 to 216,CN1CCC=C(c2cc3ccccc3c(=O)[nH]2)C1
12,166,CCOc1ccc2c(c1)C(C)(c1cc(N)ccc1Cl)C(=O)N2 (centres undefined)
13,124 to 126,COC(=O)/C=C/c1ccc(OCc2oc(-c3ccc(C(F)(F)F)cc3)nc2C)cc1C
14,184,Cc1csc2ccc3[nH]c4c(c3c12)CN(C(=O)OCCCN(C)C)CC4
15,224,Cc1cc(-c2ccc(Cl)cc2)nc(-c2ccnc(-c3cccc(S(N)(=O)=O)c3)c2)n1
16,120 to 121,Cc1oc(-c2ccccc2)nc1COc1cccc(CSc2cccc(CCC(=O)O)c2)c1
17,218 to 219,Cc1cc2c(-c3ccccc3Cl)c(NC(=O)Nc3ccccc3)c(=O)n(C)c2cc1C
18,261 to 262,CCCCc1nc2cc(Cl)cc(C(=O)O)c2n1Cc1ccccc1Cl
19,258 to 260,CSc1nc(-c2ccccc2)n(-c2ccc(C)cc2)c(=O)c1C#N
20,172 to 175,O=C(O)CCCc1cc2cc(Cl)ccc2n1S(=O)(=O)c1ccc2nsnc2c1
21,110 to 112,CCOc1ccc(OCC(=O)OC(C)(C)C)c2c1C(=O)N(CSc1nnnn1-c1ccccc1)S2(=O)=O
22,132 to 135,COc1cc(C(C)O)ccc1OCCCC1CNCCC1C(c1ccc(F)cc1)c1ccc(F)cc1 (centres undefined)
23,59 to 62,CCOC(=O)Cc1c2ccccc2n2c(-c3ccccc3)nccc12
24,65 to 68,O=Cc1cccc(Cl)c1SCc1ccccc1

row,melting point [°C],SMILES
1,141 to 143,O=C(N[C@H]1C[C@H](C(=O)O)Nc2cc(Cl)cc(Cl)c21)c1ccccc1Cl (relative stereo)
2,166,CC(C)(C)OC(=O)CN(C(=O)CN1C(=O)c2ccccc2C1=O)c1ccc2c(c1)OCO2
3,70 to 73,CC(C)Oc1cccc(CC(=O)N2CCCC(CCN3CCC(C(=O)c4nc5ccccc5n4Cc4ccc(F)cc4)CC3)(c3ccc(Cl)c(Cl)c3)C2)c1 (centres undefined)
4,265,Cc1c(C(=O)Nc2cccc(C#N)c2N2CCC(N3CCOCC3)CC2)cnn1-c1ccc([N+](=O)[O-])cc1
5,205 to 207,COc1ccc2c(c1)CCC1CCNC(=O)C(CC(C)N(Cc3ccccc3)C(C)C)=C21 (centres undefined)
6,114 to 117,CCCOc1ccc2c(c1)C(c1ccc(OC)cc1OCc1ccccc1)=C(C(=O)OC)[C@H]2c1ccc2c(c1)OCO2
7,92 to 97,CCCc1c(OCCCOc2ccc(-c3c[nH]c(SCc4ccccc4)n3)c(OC)c2CCC)ccc2c1OC(C(=O)O)CC2 (centres undefined)
8,149 to 150,O=C(Nc1nnc(C(F)(F)F)o1)C(c1ccccc1)c1ccccc1
9,160 to 161,Cc1oc(-c2ccccc2)nc1COc1ccc(COc2ccc(Cl)cc2CC(=O)O)cc1
10,144 to 146,CCCCc1nn(-c2cc(NC(C)=O)ccc2Cl)c(=O)n1Cc1ccc(-c2cc(CCC)ccc2S(=O)(=O)NC(=O)c2ccccc2Cl)cc1F
11,181 to 184,COc1ccc(CCNC(=O)C(F)(F)F)c2ccc(=O)[nH]c12
12,220 to 222,COc1cc(Nc2c(C#N)cnc3cc(Sc4ccccc4)c(OC)cc23)c(Cl)cc1Cl
13,126 to 127,Cc1c(C(=O)Nc2ccc(OCC(C)(C)C)c(C#N)c2)cnn1-c1ccc(F)cc1
14,102 to 103,CSc1ccc2c(c1)C(=O)Cc1cc(C)ccc1O2
15,164,N#Cc1ccc2nc(N[C@@H]3CCc4ccccc43)ccc2c1
16,114 to 115,NC(=O)CC1(c2ccccc2)Oc2ccccc2O1
17,123 to 124,CC(C)(C)OC(=O)NCC(O)c1ccccc1 (centres undefined)
18,242 to 246,O=C(NCc1ccc(Cl)cc1)c1cnc2sc(C#CCCO)cc2c1O
19,111 to 118,CCCCCCCCCCCCOc1ccc(-c2ncc(-c3ccc(O)c(F)c3F)cn2)cn1
20,149 to 151,COCC(C)Nc1cc(-c2ncnc(Nc3cccc(Cl)c3)n2)ccn1 (centres undefined)
21,93 to 94.5,CCOP(=O)(Cc1ccc(C(=O)N2CCc3ccccc32)cc1)OCC
22,147 to 149,CC(C)Nc1cccnc1N1CCN(C(=O)c2ccc(C(=O)NC(CO)CO)cc2)CC1
23,106 to 107,N#CC1(c2cccc(OCc3ccc4ccc(F)cc4c3)c2)CCOCC1
24,213 to 214,N#Cc1ccc(C(=O)Nc2ccc(OCCN3CCOCC3)c3ccccc23)cc1
